This is an account of results in patent US20230265116A1, “DEGRADATION OF (EGFR) BY CONJUGATION OF EGFR INHIBITORS WITH E3 LIGASE LIGAND AND METHODS OF USE” (BEIGENE, LTD., priority 2020, published 2023).

The target of test [1] is T1, EGFR L858R/T790M/C797S (BaF3-LTC cells) (Homo sapiens, UniProt P00533, C797S/L858R/T790M).
T1 construct: expressed in transfected cells; host or cells: BaF3
Description: EGFR degradation HTRF assay, BaF3-LTC cells. It counts as cell-based. The conditions noted are these: BaF3-LTC cells; for DC50: EGFR degradation, IC50 (DC50) from curve fit, read-out: DC50(nM) BaF3-LTC; for Dmax: maximum percentage of inhibition (degradation), read-out: Dmax (%) BaF3-LTC. The procedure, abridged:
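Cells treated 16 h at 37 °C, 5% CO2 in medium with 0.2% DMSO; top final concentration 10 uM, 5-fold dilution, 8 doses. Lysates read by HTRF (665/620 nm); degradation % versus DMSO high control, DC50 from four-parameter fit, Dmax as maximal degradation.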

For test [2], the system named is EGFR Del19/T790M/C797S (H1975-clone #28). Description: EGFR degradation HTRF assay, H1975-clone #28 DTC cells. Type of test: cell-based. The procedure, abridged: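 The test uses H1975 clonal lines carrying lentiviral mutant EGFR with endogenous copies removed, treated 16h at 37° C., 5% CO2. EGFR left in the lysate is quantified by HTRF, and DC50 is derived from an 8-dose curve starting at 10 uM final.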

Where [3] appears, read: H1975 # 28 DTC cells; EGFR degradation, IC50 (DC50) from curve fit; read-out: DC50(nM) H1975 # 28 DTC.
Setting [4] is: H1975 # 28 DTC cells; maximum percentage of inhibition (degradation).

SMILES strings stand for the structures. Like-named read-outs stand apart in the source and are kept apart here.

T1 sequence (P00533 25-1210 T790M/C797S/L858R): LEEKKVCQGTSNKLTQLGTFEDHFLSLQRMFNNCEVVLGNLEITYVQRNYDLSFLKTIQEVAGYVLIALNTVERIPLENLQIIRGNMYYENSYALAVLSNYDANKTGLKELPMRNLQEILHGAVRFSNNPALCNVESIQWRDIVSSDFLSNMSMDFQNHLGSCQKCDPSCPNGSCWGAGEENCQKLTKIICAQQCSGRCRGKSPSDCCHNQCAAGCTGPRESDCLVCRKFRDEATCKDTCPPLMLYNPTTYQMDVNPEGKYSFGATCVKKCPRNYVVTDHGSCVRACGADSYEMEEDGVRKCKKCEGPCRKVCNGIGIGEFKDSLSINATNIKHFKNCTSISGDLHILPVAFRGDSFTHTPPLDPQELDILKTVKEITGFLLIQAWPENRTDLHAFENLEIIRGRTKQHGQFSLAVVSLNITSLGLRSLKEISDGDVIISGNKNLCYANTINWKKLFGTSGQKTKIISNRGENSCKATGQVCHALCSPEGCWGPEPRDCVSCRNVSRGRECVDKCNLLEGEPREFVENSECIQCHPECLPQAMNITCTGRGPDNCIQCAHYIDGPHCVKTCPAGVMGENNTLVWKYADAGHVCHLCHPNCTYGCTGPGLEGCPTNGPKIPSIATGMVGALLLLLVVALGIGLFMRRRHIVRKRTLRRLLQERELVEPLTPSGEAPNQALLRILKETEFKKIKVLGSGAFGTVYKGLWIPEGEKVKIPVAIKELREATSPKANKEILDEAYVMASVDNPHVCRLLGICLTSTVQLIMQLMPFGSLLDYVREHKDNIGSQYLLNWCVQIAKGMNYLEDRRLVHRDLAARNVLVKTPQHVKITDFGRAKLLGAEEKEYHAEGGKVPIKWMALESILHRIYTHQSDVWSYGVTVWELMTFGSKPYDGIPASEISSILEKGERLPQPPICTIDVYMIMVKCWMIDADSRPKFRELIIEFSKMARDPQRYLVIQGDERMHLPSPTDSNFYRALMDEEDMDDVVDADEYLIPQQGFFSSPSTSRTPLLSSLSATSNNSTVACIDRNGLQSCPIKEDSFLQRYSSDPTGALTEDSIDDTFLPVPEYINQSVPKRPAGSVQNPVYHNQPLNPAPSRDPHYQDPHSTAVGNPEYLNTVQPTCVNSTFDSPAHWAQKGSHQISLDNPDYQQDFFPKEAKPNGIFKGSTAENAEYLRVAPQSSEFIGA

Regarding `CCc1ccc2c(P(C)(C)=O)c(Nc3nc(Nc4cc(CC)c(N5CCC(N6CCC(CCc7cc(F)c(C8CCC(=O)NC8=O)c(F)c7)CC6)CC5)cc4OC)ncc3Br)ccc2n1` (stereo not shown) [Example 583, 3-(4-(2-(1′-(4-((5-bromo-4-((5-(dimethylphosphoryl)-2-ethylquinolin-6-yl)amino)pyrimidin-2-yl)amino)-2-ethyl-5-methoxyphenyl)-[1,4′-bipiperidin]-4-yl)ethyl)-2,6-difluorophenyl)piperidine-2,6-dione], in test [1], the DC50 was 17 nM and the Dmax is 92.9%. Further, the DC50 in test [2] (setting [3]) is 2.7 nM. The “Dmax (%) H1975 # 28 DTC” value in test [2] (setting [4]) worked out at 76.91%.

For `CCOc1cc(N2CCC(N3CCN(CCN(C)c4cccc5c4oc(=O)n5C4CCC(=O)NC4=O)CC3)CC2)c(CC)cc1Nc1ncc(Br)c(Nc2cc(F)c3nc(CC)ccc3c2P(C)(C)=O)n1` (stereo not shown) [Example 604, 3-(7-((2-(4-(1-(4-((5-bromo-4-((5-(dimethylphosphoryl)-2-ethyl-8-fluoroquinolin-6-yl)amino)pyrimidin-2-yl)amino)-5-ethoxy-2-ethylphenyl)piperidin-4-yl)piperazin-1-yl)ethyl)(methyl)amino)-2-oxobenzo[d]oxazol-3(2H)-yl)piperidine-2,6-dione], in test [1], the DC50 turned out to be 18.5 nM and the Dmax came to 86.1%. Also, in test [2] (setting [3]), the DC50 was 0.764 nM. The “Dmax (%) H1975 # 28 DTC” value in test [2] (setting [4]) worked out at 69.1%.

Turning to `CCOc1cc(N2CCC(N3CCN(CCc4cc(F)c([C@H]5CCC(=O)NC5=O)c(F)c4)CC3)CC2)c(CC)cc1Nc1nccc(Nc2cc(F)c3nc(CC)ccc3c2P(C)(C)=O)n1` [Example 591, (R)-3-(4-(2-(4-(1-(4-((4-((5-(dimethylphosphoryl)-2-ethyl-8-fluoroquinolin-6-yl)amino)pyrimidin-2-yl)amino)-5-ethoxy-2-ethylphenyl)piperidin-4-yl)piperazin-1-yl)ethyl)-2,6-difluorophenyl)piperidine-2,6-dione], in test [1], the DC50 came to 72.7 nM and the Dmax was 75%. For the same compound, in test [2] (setting [3]), the DC50 worked out at 1.57 nM. Also, in test [2] (setting [4]), the “Dmax (%) H1975 # 28 DTC” value is on record as 75.79%.

As for `CCc1cc(Nc2ncc(Br)c(Nc3ccc4nc(C)ccc4c3P(C)(C)=O)n2)c(OC)cc1N1CCC(N2CCN(C(=O)[C@@H]3CCN(c4cc(F)c([C@H]5CCC(=O)NC5=O)c(F)c4)C3)[C@H](CO)C2)CC1` [Example 675, (R)-3-(4-((R)-3-((S)-4-(1-(4-((5-bromo-4-((5-(dimethylphosphoryl)-2-methylquinolin-6-yl)amino)pyrimidin-2-yl)amino)-2-ethyl-5-methoxyphenyl)piperidin-4-yl)-2-(hydroxymethyl)piperazine-1-carbonyl)pyrrolidin-1-yl)-2,6-difluorophenyl)piperidine-2,6-dione], in test [1], the DC50 was determined as 4.3 nM and the Dmax amounted to 96.5%. For the same compound, the DC50 in test [2] (setting [3]) turned out to be 1.01 nM. In addition, the “Dmax (%) H1975 # 28 DTC” value in test [2] (setting [4]) was found to be 82.47%.

On to `CCOc1cc(N2CCC(N3CCN(CCc4cccc5c4oc(=O)n5C4CCC(=O)NC4=O)CC3)CC2)c(CC)cc1Nc1ncc(Br)c(Nc2ccc3nc(CC)ncc3c2P(C)(C)=O)n1` (stereo not shown) [Example 563, 3-(7-(2-(4-(1-(4-((5-bromo-4-((5-(dimethylphosphoryl)-2-ethylquinazolin-6-yl)amino)pyrimidin-2-yl)amino)-5-ethoxy-2-ethylphenyl)piperidin-4-yl)piperazin-1-yl)ethyl)-2-oxobenzo[d]oxazol-3(2H)-yl)piperidine-2,6-dione], for which the DC50 in test [1] stood at 7.69 nM; in test [2] (read-out: DC50(nM) H1975 # 28 DTC; H1975 # 28 DTC cells; EGFR degradation, IC50 (DC50) from curve fit) it was 0.732 nM. In test [2] (setting [4]), the “Dmax (%) H1975 # 28 DTC” value is listed as 81.88%.

Take `CCOc1cc(N2CCC(N3CCN(C[C@@H]4CCN(c5cc(F)cc6c5oc(=O)n6C5CCC(=O)NC5=O)C4)CC3)CC2)c(CC)cc1Nc1ncc(Br)c(Nc2ccc3nc(CC)ccc3c2P(C)(C)=O)n1` (stereo partly drawn) [Example 476, 3-(7-((S)-3-((4-(1-(4-((5-bromo-4-((5-(dimethylphosphoryl)-2-ethylquinolin-6-yl)amino)pyrimidin-2-yl)amino)-5-ethoxy-2-ethylphenyl)piperidin-4-yl)piperazin-1-yl)methyl)pyrrolidin-1-yl)-5-fluoro-2-oxobenzo[d]oxazol-3(2H)-yl)piperidine-2,6-dione]: in test [1], the DC50 amounted to 26.5 nM and the Dmax came to 88%. Besides, the DC50 in test [2] (setting [3]) worked out at 7.95 nM. Besides, the “Dmax (%) H1975 # 28 DTC” value in test [2] (setting [4]) was determined as 74.62%.

As for `CCc1cc(Nc2ncc(Br)c(Nc3cc(F)c4nc(C)ccc4c3P(C)(C)=O)n2)c(OC)cc1N1CCC(N2CCN(CCc3cc(F)c([C@H]4CCC(=O)NC4=O)c(F)c3)CC2)CC1` [Example 510, (R)-3-(4-(2-(4-(1-(4-((5-bromo-4-((5-(dimethylphosphoryl)-8-fluoro-2-methylquinolin-6-yl)amino)pyrimidin-2-yl)amino)-2-ethyl-5-methoxyphenyl)piperidin-4-yl)piperazin-1-yl)ethyl)-2,6-difluorophenyl)piperidine-2,6-dione], the DC50 stood at 3.89 nM in test [1] and 0.763 nM in test [2] (setting [3]). The Dmax in test [1] amounted to 93.1%. Besides, the “Dmax (%) H1975 # 28 DTC” value in test [2] (setting [4]) is 67.2%.

`CCOc1cc(N2CCC(N3CCN(CCCc4cc(OC)cc5c4oc(=O)n5C4CCC(=O)NC4=O)CC3)CC2)c(CC)cc1Nc1ncc(Br)c(Nc2ccc3c(=O)n(CC)ncc3c2P(C)(C)=O)n1` (stereo not shown) [Example 598, 3-(7-(3-(4-(1-(4-((5-bromo-4-((5-(dimethylphosphoryl)-2-ethyl-1-oxo-1,2-dihydrophthalazin-6-yl)amino)pyrimidin-2-yl)amino)-5-ethoxy-2-ethylphenyl)piperidin-4-yl)piperazin-1-yl)propyl)-5-methoxy-2-oxobenzo[d]oxazol-3(2H)-yl)piperidine-2,6-dione]: in test [1], the DC50 worked out at 18.8 nM and the Dmax came out at 88.4%. In addition, the DC50 in test [2] (setting [3]) was found to be 1.64 nM. The “Dmax (%) H1975 # 28 DTC” value in test [2] (setting [4]) is on record as 81.26%.

As to `CCOc1ccc2c(P(C)(C)=O)c(Nc3nc(Nc4cc(CC)c(N5CCC(N6CCN(C(=O)[C@@H]7CCN(c8cc(F)c([C@H]9CCC(=O)NC9=O)c(F)c8)C7)CC6)CC5)cc4OC)ncc3Br)ccc2n1` [Example 677, (R)-3-(4-((R)-3-(4-(1-(4-((5-bromo-4-((5-(dimethylphosphoryl)-2-ethoxyquinolin-6-yl)amino)pyrimidin-2-yl)amino)-2-ethyl-5-methoxyphenyl)piperidin-4-yl)piperazine-1-carbonyl)pyrrolidin-1-yl)-2,6-difluorophenyl)piperidine-2,6-dione], the DC50 worked out at 38 nM in test [1] and 3.83 nM in test [2] (setting [3]). In addition, the Dmax in test [1] was determined as 94.3%. Besides, the “Dmax (%) H1975 # 28 DTC” value in test [2] (setting [4]) is reported as 77.05%.

As to `CCc1cc(Nc2ncc(Br)c(Nc3ccc4nc(C)ccc4c3P(C)(C)=O)n2)c(OC2CC2)cc1N1CCC(N2CCN(CCCc3cc(F)cc4c3oc(=O)n4C3CCC(=O)NC3=O)CC2)CC1` (stereo not shown) [Example 607, 3-(7-(3-(4-(1-(4-((5-bromo-4-((5-(dimethylphosphoryl)-2-methylquinolin-6-yl)amino)pyrimidin-2-yl)amino)-5-cyclopropoxy-2-ethylphenyl)piperidin-4-yl)piperazin-1-yl)propyl)-5-fluoro-2-oxobenzo[d]oxazol-3(2H)-yl)piperidine-2,6-dione], the DC50 in test [1] is 14.2 nM; in test [2] (setting [3]), 1.07 nM. The maximal degradation (Dmax) in test [1] worked out at 86.8%. In addition, in test [2] (setting [4]), the “Dmax (%) H1975 # 28 DTC” value is on record as 78.76%.

Consider `CCOc1cc(N2CCC(N3CCN(C[C@@H]4CCN(c5cccc6c5oc(=O)n6C5CCC(=O)NC5=O)C4)CC3)CC2)c(CC)cc1Nc1ncc(Br)c(Nc2ccc3c(=O)n(CC)ncc3c2P(C)(C)=O)n1` (stereo partly drawn) [Example 623, 3-(7-((S)-3-((4-(1-(4-((5-bromo-4-((5-(dimethylphosphoryl)-2-ethyl-1-oxo-1,2-dihydrophthalazin-6-yl)amino)pyrimidin-2-yl)amino)-5-ethoxy-2-ethylphenyl)piperidin-4-yl)piperazin-1-yl)methyl)pyrrolidin-1-yl)-2-oxobenzo[d]oxazol-3(2H)-yl)piperidine-2,6-dione], for which, in test [1], the DC50 is 17.1 nM and the Dmax is 92%. Moreover, in test [2] (setting [3]), the DC50 is 1.31 nM. In addition, the “Dmax (%) H1975 # 28 DTC” value in test [2] (setting [4]) amounted to 75.76%.

Consider `CCc1ccc2c(P(C)(C)=O)c(Nc3nc(Nc4cc(CC)c(N5CCC(N6CCN(CCc7cc(F)c([C@H]8CCC(=O)NC8=O)c(F)c7)CC6)CC5)cc4OC)ncc3Cl)ccc2n1` [Example 744, (R)-3-(4-(2-(4-(1-(4-((5-chloro-4-((5-(dimethylphosphoryl)-2-ethylquinolin-6-yl)amino)pyrimidin-2-yl)amino)-2-ethyl-5-methoxyphenyl)piperidin-4-yl)piperazin-1-yl)ethyl)-2,6-difluorophenyl)piperidine-2,6-dione], for which the values for the DC50 in test [1] and in test [2] (setting [3]) were 5.87 nM and 0.653 nM, respectively. Besides, in test [2] (setting [4]), the “Dmax (%) H1975 # 28 DTC” value worked out at 84.24%.

The term DC50 denotes the midpoint of the concentration-degradation curve. What is called Dmax is the greatest extent of degradation seen.
